The source of these data is patent US9212182B2, “Bicyclic sulfonamide compounds as sodium channel inhibitors” (AMGEN INC., priority 2013, dated 2015).

Like-named read-outs stand apart in the source and are kept apart here.

For this test, the target named is Nav 1.7 (Homo sapiens (Human), UniProt Q15858). Description: in-vitro Nav 1.7 PX (IC50). The class given is cell-based.
Chain of Nav 1.7 (Q15858 whole entry): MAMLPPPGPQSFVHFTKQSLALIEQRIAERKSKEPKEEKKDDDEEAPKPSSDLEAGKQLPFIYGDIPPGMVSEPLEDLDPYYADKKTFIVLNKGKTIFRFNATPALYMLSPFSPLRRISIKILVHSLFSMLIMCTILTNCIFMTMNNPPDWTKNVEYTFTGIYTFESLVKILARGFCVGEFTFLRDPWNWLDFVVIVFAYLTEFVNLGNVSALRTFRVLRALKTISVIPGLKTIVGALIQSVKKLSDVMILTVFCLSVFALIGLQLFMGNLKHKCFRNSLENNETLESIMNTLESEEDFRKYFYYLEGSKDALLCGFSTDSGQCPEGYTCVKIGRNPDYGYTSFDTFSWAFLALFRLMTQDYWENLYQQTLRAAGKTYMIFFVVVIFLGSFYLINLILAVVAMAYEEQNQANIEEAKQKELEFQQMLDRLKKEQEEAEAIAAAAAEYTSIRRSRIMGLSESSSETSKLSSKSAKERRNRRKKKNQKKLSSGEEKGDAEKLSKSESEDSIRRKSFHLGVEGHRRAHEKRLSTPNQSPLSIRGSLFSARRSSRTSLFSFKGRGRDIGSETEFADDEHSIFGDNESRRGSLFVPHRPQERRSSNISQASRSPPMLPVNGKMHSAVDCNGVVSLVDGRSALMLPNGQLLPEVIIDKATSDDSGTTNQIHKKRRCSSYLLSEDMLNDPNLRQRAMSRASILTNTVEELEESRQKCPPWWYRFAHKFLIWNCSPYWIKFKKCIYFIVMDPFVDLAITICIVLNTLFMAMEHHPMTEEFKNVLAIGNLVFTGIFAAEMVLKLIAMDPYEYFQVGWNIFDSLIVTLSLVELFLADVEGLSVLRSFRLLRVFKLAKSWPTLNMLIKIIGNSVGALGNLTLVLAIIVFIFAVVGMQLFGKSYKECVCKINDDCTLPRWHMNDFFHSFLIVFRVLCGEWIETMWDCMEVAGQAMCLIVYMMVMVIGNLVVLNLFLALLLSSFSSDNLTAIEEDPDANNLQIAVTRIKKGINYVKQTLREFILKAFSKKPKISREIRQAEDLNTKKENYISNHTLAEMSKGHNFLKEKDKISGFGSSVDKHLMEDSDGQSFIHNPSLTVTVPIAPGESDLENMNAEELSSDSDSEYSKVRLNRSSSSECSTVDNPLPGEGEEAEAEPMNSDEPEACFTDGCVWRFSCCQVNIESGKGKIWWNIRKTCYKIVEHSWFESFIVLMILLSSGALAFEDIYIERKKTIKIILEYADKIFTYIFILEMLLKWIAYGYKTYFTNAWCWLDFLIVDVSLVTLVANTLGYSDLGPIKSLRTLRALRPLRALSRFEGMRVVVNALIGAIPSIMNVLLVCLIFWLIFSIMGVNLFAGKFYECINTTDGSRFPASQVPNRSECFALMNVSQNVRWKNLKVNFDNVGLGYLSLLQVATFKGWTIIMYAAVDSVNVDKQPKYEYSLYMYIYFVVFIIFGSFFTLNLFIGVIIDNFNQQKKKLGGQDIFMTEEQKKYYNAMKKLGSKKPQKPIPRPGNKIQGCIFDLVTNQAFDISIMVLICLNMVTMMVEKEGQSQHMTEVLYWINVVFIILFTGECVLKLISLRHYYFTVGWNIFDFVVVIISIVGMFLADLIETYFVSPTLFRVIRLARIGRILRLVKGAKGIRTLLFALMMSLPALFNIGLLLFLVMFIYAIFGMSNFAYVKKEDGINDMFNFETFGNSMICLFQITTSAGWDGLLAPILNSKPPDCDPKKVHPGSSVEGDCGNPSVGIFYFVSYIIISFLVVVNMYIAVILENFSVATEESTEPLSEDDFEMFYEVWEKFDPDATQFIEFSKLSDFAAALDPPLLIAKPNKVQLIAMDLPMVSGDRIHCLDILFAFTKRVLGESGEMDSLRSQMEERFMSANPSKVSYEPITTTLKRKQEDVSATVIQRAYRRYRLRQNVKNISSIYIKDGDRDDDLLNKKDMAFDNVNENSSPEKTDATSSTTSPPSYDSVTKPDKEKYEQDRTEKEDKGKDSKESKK

Broadly, the IC50 is the concentration that gives 50% inhibition. Read a high IC50 as lower potency. Under “in-vitro Nav 1.7 PX data”, `COc1cc(C)cc(-c2cc(OC)c(-n3c(=O)ccc4cc(S(=O)(=O)Nc5ncccn5)ccc43)cc2C)c1` [Example 967, 1-(3′,5-dimethoxy-2,5′-dimethyl-4-biphenylyl)-2-oxo-N-2-pyrimidinyl-1,2-dihydro-6-quinolinesulfonamide] had an IC50 of 14 nM. Same read-out and setting: as for `COc1ccccc1-c1cc(OC)c(-n2c(=O)ccc3cc(S(=O)(=O)Nc4ccon4)ccc32)cc1F` [Example 956, 1-(2-fluoro-2′,5-dimethoxy-4-biphenylyl)-N-3-isoxazolyl-2-oxo-1,2-dihydro-6-quinolinesulfonamide], the figure is 99 nM. As for `COc1nc(N2CC(F)(F)C2)c(Cl)cc1-n1c(=O)ccc2cc(S(=O)(=O)Nc3ccon3)ccc21` [Example 342, 1-(5-chloro-6-(3,3-difluoroazetidin-1-yl)-2-methoxypyridin-3-yl)-N-(isoxazol-3-yl)-2-oxo-1,2-dihydroquinoline-6-sulfonamide], 1640 nM corresponded to half-maximal inhibition (in-vitro PatchXpress (PX)) (IC50). Same read-out and setting: as for `COc1cc(-c2ccc(Cl)c(C)c2)c(Cl)cc1-n1c(=O)ccc2cc(S(=O)(=O)Nc3ccncn3)ccc21` (atropisomer, axis not shown; (P)) [Example 367, (P)-1-(2,4′-dichloro-5-methoxy-3′-methyl-4-biphenylyl)-2-oxo-N-4-pyrimidinyl-1,2-dihydro-6-quinolinesulfonamide], the figure is 3 nM. For `COc1cc(-c2cccc(C(F)(F)F)c2)c(F)cc1-n1c(=O)ccc2cc(S(=O)(=O)Nc3ncco3)ccc21` [Example 806, 1-(2-fluoro-5-methoxy-3′-(trifluoromethyl)-4-biphenylyl)-N-1,3-oxazol-2-yl-2-oxo-1,2-dihydro-6-quinolinesulfonamide], where the note is “in-vitro Nav 1.7 PX data”, the IC50 came out at 28 nM. Same read-out and setting: for `COc1ccc(Br)cc1-n1c(=O)ccc2cc(S(=O)(=O)Nc3ccon3)ccc21` [Example 851, 1-(5-bromo-2-methoxyphenyl)-N-3-isoxazolyl-2-oxo-1,2-dihydro-6-quinolinesulfonamide] the value was 371 nM. In the case of `COc1cc(-c2ccc(Cl)c(C)c2)c(F)cc1-n1c(=O)ccc2cc(S(=O)(=O)Nc3cc(C)on3)ccc21` [Example 931, 1-(4′-chloro-2-fluoro-5-methoxy-3′-methyl-4-biphenylyl)-N-(5-methyl-3-isoxazolyl)-2-oxo-1,2-dihydro-6-quinolinesulfonamide], where the note is “in-vitro Nav 1.7 PX data”, the IC50 is 128 nM. Still for that read-out and setting: as for `COc1cc(C#CC(F)(F)F)c(F)cc1-n1c(=O)ccc2cc(S(=O)(=O)Nc3ccon3)ccc21` [Example 644, 1-(5-fluoro-2-methoxy-4-(3,3,3-trifluoro-1-PROPYN-1-yl)phenyl)-N-3-isoxazolyl-2-oxo-1,2-dihydro-6-quinolinesulfonamide], the figure is 387 nM. In the case of `COc1ccc(-c2cccc(C(F)(F)F)c2)cc1-n1c(=O)ccc2cc(S(=O)(=O)Nc3ccon3)ccc21` [Example 312, N-3-isoxazolyl-1-(4-methoxy-3′-(trifluoromethyl)-3-biphenylyl)-2-oxo-1,2-dihydro-6-quinolinesulfonamide], the IC50 was 22 nM. Still for that read-out and setting: for `COc1ccc(-c2cccc(F)c2)cc1-n1c(=O)ccc2cc(S(=O)(=O)Nc3ccon3)ccc21` (atropisomer, axis not shown; (P)) [Example 483, (P)-1-(3′-fluoro-4-methoxy-3-biphenylyl)-N-3-isoxazolyl-2-oxo-1,2-dihydro-6-quinolinesulfonamide] the value was 54 nM. For the compound `COc1cc(-c2ccc(Cl)cc2)ccc1-n1c(=O)ccc2cc(S(=O)(=O)Nc3ncc(F)cn3)ccc21` [Example 764, 1-(4′-chloro-3-methoxy-4-biphenylyl)-N-(5-fluoro-2-pyrimidinyl)-2-oxo-1,2-dihydro-6-quinolinesulfonamide], the IC50 (in-vitro Nav 1.7 PX data) was found to be 40 nM. Same read-out and setting: as for `COc1cc(Cl)c(-c2cc(F)cc(Cl)c2)cc1-n1c(=O)ccc2cc(S(=O)(=O)Nc3ccon3)ccc21` [Example 613, 1-(3′,6-dichloro-5′-fluoro-4-methoxy-3-biphenylyl)-N-3-isoxazolyl-2-oxo-1,2-dihydro-6-quinolinesulfonamide], the figure is 18 nM. Same read-out and setting: as for `COc1cc(-c2cc(C)cc(C)c2)c(F)cc1-n1c(=O)ccc2cc(S(=O)(=O)Nc3ccon3)ccc21` [Example 706, 1-(2-fluoro-5-methoxy-3′,5′-dimethyl-4-biphenylyl)-N-3-isoxazolyl-2-oxo-1,2-dihydro-6-quinolinesulfonamide], the figure is 14 nM.

For `COc1cc(-c2cccc(C(F)(F)F)c2)ccc1-n1c(=O)cnc2cc(S(=O)(=O)Nc3ncccn3)ccc21` [Example 1200, 1-(3-methoxy-3′-(trifluoromethyl)-4-biphenylyl)-2-oxo-N-2-pyrimidinyl-1,2-dihydro-6-quinoxalinesulfonamide], half-maximal inhibition (IC50) required 78 nM.

For the compound `COc1cc(-c2cccc(Cl)c2)c(Cl)cc1-n1c(=O)ccc2cc(S(=O)(=O)Nc3ccon3)ccc21` (atropisomer, axis not shown; (M)) [Example 460, (M)-1-(2,3′-dichloro-5-methoxy-[1,1′-biphenyl]-4-yl)-N-(isoxazol-3-yl)-2-oxo-1,2-dihydroquinoline-6-sulfonamide], the IC50 turned out to be 1760 nM. Under “in-vitro Nav 1.7 PX data”, `COc1cc(C#CC(C)(C)O)c(F)cc1-n1c(=O)ccc2cc(S(=O)(=O)Nc3ccon3)ccc21` [Example 1139, 1-(5-fluoro-4-(3-hydroxy-3-methyl-1-butyn-1-yl)-2-methoxyphenyl)-N-3-isoxazolyl-2-oxo-1,2-dihydro-6-quinolinesulfonamide] came in with an IC50 of 7380 nM. In the case of `COc1cc(-c2ccc(F)c(C)c2)c(F)cc1-n1c(=O)ccc2cc(S(=O)(=O)Nc3cc(C)ncn3)ccc21` [Example 945, 1-(2,4′-difluoro-5-methoxy-3′-methyl-4-biphenylyl)-N-(6-methyl-4-pyrimidinyl)-2-oxo-1,2-dihydro-6-quinolinesulfonamide], under “in-vitro Nav 1.7 PX data”, the IC50 was found to be 34 nM.

In turn, `COc1nc(OCc2cc(F)c(F)c(F)c2)c(Cl)cc1-n1c(=O)ccc2cc(S(=O)(=O)Nc3ccon3)ccc21` [Example 1218, 1-(5-chloro-2-methoxy-6-((3,4,5-trifluorobenzyl)oxy)-3-pyridinyl)-N-3-isoxazolyl-2-oxo-1,2-dihydro-6-quinolinesulfonamide] yielded an IC50 of 39 nM.

The compound `COc1cc(-c2ccc(Cl)c(C#N)c2)c(F)cc1-n1c(=O)ccc2cc(S(=O)(=O)Nc3ccnc(C)n3)ccc21` [Example 892, 1-(4′-chloro-3′-cyano-2-fluoro-5-methoxy-4-biphenylyl)-N-(2-methyl-4-pyrimidinyl)-2-oxo-1,2-dihydro-6-quinolinesulfonamide] had an IC50 (in-vitro Nav 1.7 PX data) of 51 nM. Under “in-vitro PatchXpress (PX)”, `COc1cc(N2CC(F)(F)C2)c(F)cc1-n1c(=O)ccc2cc(S(=O)(=O)Nc3ccon3)ccc21` [Example 406, 1-(4-(3,3-difluoro-1-azetidinyl)-5-fluoro-2-methoxyphenyl)-N-3-isoxazolyl-2-oxo-1,2-dihydro-6-quinolinesulfonamide] displayed an IC50 of 1000 nM. In turn, `COc1nc(O[C@H]2CCCC[C@H]2C)c(Cl)cc1-n1c(=O)ccc2cc(S(=O)(=O)Nc3ccon3)ccc21` [Example 1224, 1-(5-chloro-2-methoxy-6-(((1S,2R)-2-methylcyclohexyl)oxy)-3-pyridinyl)-N-3-isoxazolyl-2-oxo-1,2-dihydro-6-quinolinesulfonamide] had an IC50 of 88 nM. In turn, `COc1cc(-c2ccc(OC(F)F)cc2)c(F)cc1-n1c(=O)ccc2cc(S(=O)(=O)Nc3ccon3)ccc21` [Example 763, 1-(4′-(difluoromethoxy)-2-fluoro-5-methoxy-4-biphenylyl)-N-3-isoxazolyl-2-oxo-1,2-dihydro-6-quinolinesulfonamide] registered an IC50 (in-vitro Nav 1.7 PX data) of 30 nM. `O=c1ccc2cc(S(=O)(=O)Nc3ccon3)ccc2n1-c1ccc(-c2cccc(C(F)(F)F)c2)cc1` [Example 591, N-3-isoxazolyl-2-oxo-1-(3′-(trifluoromethyl)-4-biphenylyl)-1,2-dihydro-6-quinolinesulfonamide]: the IC50 (in-vitro Nav 1.7 PX data) turned out to be 732 nM. Regarding `CCOc1cc(-c2cccc(F)c2)c(F)cc1-n1c(=O)ccc2cc(S(=O)(=O)Nc3ccon3)ccc21` (atropisomer, axis not shown; (M)) [Example 389, (M)-1-(5-ethoxy-2,3′-difluoro-[1,1′-biphenyl]-4-yl)-N-(isoxazol-3-yl)-2-oxo-1,2-dihydroquinoline-6-sulfonamide], the IC50 came out at 239 nM. The same measure, in the same setting: as for `COc1nc(Oc2ccc(F)cc2F)c(Cl)cc1-n1c(=O)ccc2cc(S(=O)(=O)Nc3ccon3)ccc21` [Example 1221, 1-(5-chloro-6-(2,4-difluorophenoxy)-2-methoxy-3-pyridinyl)-N-3-isoxazolyl-2-oxo-1,2-dihydro-6-quinolinesulfonamide], the figure is 2590 nM. On the same count and under the same terms, as for `COc1cc(-c2ccc(F)c(Cl)c2)ccc1-n1c(=O)ccc2cc(S(=O)(=O)Nc3ccon3)ccc21` (atropisomer, axis not shown; (P)) [Example 578, (P)-1-(3′-chloro-4′-fluoro-3-methoxy-4-biphenylyl)-N-3-isoxazolyl-2-oxo-1,2-dihydro-6-quinolinesulfonamide], the figure is 16 nM. As to `COc1cc(-c2cccc(C)c2)ccc1-n1c(=O)ccc2cc(S(=O)(=O)Nc3ccnc(C)n3)ccc21` [Example 1132, 1-(3-methoxy-3′-methyl-4-biphenylyl)-N-(2-methyl-4-pyrimidinyl)-2-oxo-1,2-dihydro-6-quinolinesulfonamide], for the setting “in-vitro Nav 1.7 PX data”, the IC50 came out at 192 nM.

In turn, `COc1cc(F)cc(-c2cc(OC)c(-n3c(=O)ccc4cc(S(=O)(=O)Nc5ccon5)ccc43)cc2F)c1` [Example 710, 1-(2,3′-difluoro-5,5′-dimethoxy-4-biphenylyl)-N-3-isoxazolyl-2-oxo-1,2-dihydro-6-quinolinesulfonamide] gave an IC50 (in-vitro Nav 1.7 PX data) of 14 nM. On the same count and under the same terms, as for `COc1cc(-c2cc(Cl)cnc2OC)c(F)cc1-n1c(=O)ccc2cc(S(=O)(=O)Nc3cccnn3)ccc21` [Example 775, 1-(4-(5-chloro-2-methoxy-3-pyridinyl)-5-fluoro-2-methoxyphenyl)-2-oxo-N-3-pyridazinyl-1,2-dihydro-6-quinolinesulfonamide], the figure is 47 nM.

Compound `COc1cc(-c2cc(F)cnc2OC)c(C)cc1-n1c(=O)ccc2cc(S(=O)(=O)Nc3ccon3)ccc21` (atropisomer, axis not shown; (M)) [Example 425, (M)-1-(4-(5-fluoro-2-methoxy-3-pyridinyl)-2-methoxy-5-methylphenyl)-N-3-isoxazolyl-2-oxo-1,2-dihydro-6-quinolinesulfonamide] displayed an IC50 of 20100 nM.
